In the supplement of paper PMC6045584:
± gives the standard deviation of the averaged measurements.

Key:
SAPACITABINE = compound: CCCCCCCCCCCCCCCC(=O)Nc1ccn([C@@H]2O[C@H](CO)[C@@H](O)[C@@H]2C#N)c(=O)n1 [SAPACITABINE]; experiment: area under dose-response curve of surviving fraction (unscaled, Aref=0) (surviving fraction x log10(nM)); higher = more resistant; conditions: exposure time: 5 days; dose range 0.5-1000 nM
Outline: (§1)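 Surviving fractions were fitted by 3-parameter logistic regression in the drc R package to give dose-response survival curves. They came from tumour cell lines treated for five days with eight inhibitor concentrations from 0.5 to 1000 nM and read by CellTiter-Glo luminescence against DMSO-only wells. The area under the curve is the unscaled activity area. It was calculated over log10 dose with Aref = 0.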

[1] = compound: Cn1cc(C2=Nc3cc(NC(=O)C(N)C4CCCCC4)cc4c3C2=CNNC4=O)cn1; experiment: as above; conditions: exposure time: 5 days; dose range 0.5-1000 nM
Outline: as §1

AFATINIB [2] = compound: T1, CN(C)C/C=C/C(=O)Nc1cc2c(Nc3ccc(F)c(Cl)c3)ncnc2cc1O[C@H]1CCOC1 [AFATINIB]; experiment: as above; conditions: exposure time: 5 days; dose range 0.5-1000 nM
Outline: as §1

SNX-5422 = compound: CC1(C)CC(=O)c2c(C(F)(F)F)nn(-c3ccc(C(N)=O)c(N[C@H]4CC[C@H](OC(=O)CN)CC4)c3)c2C1 [SNX-5422]; experiment: as above; conditions: exposure time: 5 days; dose range 0.5-1000 nM
Outline: as §1

[3] = compound: Cn1cc(C2=Nc3cc(NC(=O)C(N)C4CCCCC4)cc4c3C2=CNNC4=O)cn1; experiment: surviving fraction relative to DMSO-only wells; higher = less growth inhibition; conditions: exposure time: 5 days
Outline: (§2)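 Lines were retained only if, across three screens, replicate Pearson r was >0.7 and median Z' was >0.3. Viability was measured as CellTiter-Glo luminescence and reported as surviving fraction relative to the median of DMSO-only wells. Readings followed 10 minutes at room temperature, after log-phase tumour cells seeded at 250–500 per well in 384-well plates had been exposed, from 24 hours after seeding, continuously for five days to inhibitors at 0.5, 1, 5, 10, 50, 100, 500 and 1000 nM.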

AFATINIB [4] = compound: T1, AFATINIB; experiment: as above; conditions: exposure time: 5 days
Outline: as §2

| Test System | area under dose-response curve (SAPACITABINE) | area under dose-response curve [1] | area under dose-response curve (AFATINIB [2]) | area under dose-response curve (SNX-5422) | surviving fraction ([3]; 0.5 nM) | surviving fraction ([3]; 1 nM) | surviving fraction ([3]; 5 nM) | surviving fraction ([3]; 10 nM) | surviving fraction ([3]; 50 nM) | surviving fraction ([3]; 100 nM) | surviving fraction ([3]; 500 nM) | surviving fraction ([3]; 1000 nM) | surviving fraction (AFATINIB [4]; 0.5 nM) | surviving fraction (AFATINIB [4]; 1 nM) | surviving fraction (AFATINIB [4]; 5 nM) | surviving fraction (AFATINIB [4]; 10 nM) | surviving fraction (AFATINIB [4]; 50 nM) | surviving fraction (AFATINIB [4]; 100 nM) | surviving fraction (AFATINIB [4]; 500 nM) | surviving fraction (AFATINIB [4]; 1000 nM) |
| --- | --- | --- | --- | --- | --- | --- | --- | --- | --- | --- | --- | --- | --- | --- | --- | --- | --- | --- | --- | --- |
| HOS BONE | 2.63 | 2.35 | 3.28 | 1.72 | 1.024 ± 0.0086 | 1.03 ± 0.038 | 1.04 ± 0.041 | 1.02 ± 0.016 | 0.908 ± 0.052 | 0.524 ± 0.05 | 0.0407 ± 0.0015 | 0.0373 ± 0.0015 | 1.01 ± 0.027 | 1.03 ± 0.012 | 1.017 ± 0.0066 | 1.01 ± 0.016 | 1.02 ± 0.014 | 1.02 ± 0.023 | 0.979 ± 0.048 | 0.858 ± 0.025 |
| SAOS2 BONE | 2.19 | 2.52 | 3.04 | 1.96 | 1.1493 ± 0.00058 | 1.08 ± 0.049 | 1.073 ± 0.0011 | 1.17 ± 0.077 | 0.882 ± 0.065 | 0.728 ± 0.03 | 0.113 ± 0.017 | 0.0473 ± 0.0046 | 1.15 ± 0.11 | 1.21 ± 0.067 | 1.15 ± 0.018 | 1.104 ± 0.0087 | 1.1 ± 0.013 | 1.06 ± 0.089 | 0.603 ± 0.0052 | 0.186 ± 0.034 |
| HCT15 LARGE INTESTINE | 1.34 | 3.4 | 3.26 | 2.24 | 0.997 ± 0.079 | 1.05 ± 0.034 | 1.07 ± 0.0081 | 1.05 ± 0.037 | 1 ± 0.063 | 1.05 ± 0.045 | 1 ± 0.031 | 0.951 ± 0.028 | 1.12 ± 0.03 | 1.05 ± 0.02 | 1.04 ± 0.064 | 1.05 ± 0.027 | 1.1 ± 0.052 | 1.06 ± 0.068 | 0.97 ± 0.081 | 0.632 ± 0.063 |
| MDAMB436 BREAST | 2.05 | 2.31 | 2.99 | 2.16 | 0.847 ± 0.079 | 0.911 ± 0.097 | 0.871 ± 0.05 | 0.852 ± 0.11 | 0.813 ± 0.051 | 0.577 ± 0.031 | 0.284 ± 0.02 | 0.228 ± 0.011 | 0.924 ± 0.014 | 0.974 ± 0.078 | 0.922 ± 0.05 | 0.905 ± 0.0097 | 0.996 ± 0.063 | 0.892 ± 0.035 | 0.763 ± 0.06 | 0.647 ± 0.029 |
| HUO3N1 BONE | 2.73 | 2.88 | 3.17 | 2.53 | 1.01 ± 0.021 | 0.991 ± 0.062 | 1.02 ± 0.039 | 1.03 ± 0.023 | 0.975 ± 0.043 | 0.863 ± 0.041 | 0.504 ± 0.024 | 0.319 ± 0.04 | 1.03 ± 0.034 | 1 ± 0.019 | 1.06 ± 0.027 | 1.04 ± 0.068 | 1.03 ± 0.031 | 0.959 ± 0.017 | 0.824 ± 0.028 | 0.631 ± 0.034 |
| MDAMB134 BREAST | 2.57 | 2.44 | 3.16 | 2.8 | 0.9005 ± 0.0064 | 0.987 ± 0.062 | 0.908 ± 0.092 | 0.855 ± 0.17 | 0.642 ± 0.067 | 0.525 ± 0.14 | 0.442 ± 0.033 | 0.505 ± 0.018 | 1.07 ± 0.046 | 0.997 ± 0.15 | 1.24 ± 0.25 | 0.967 ± 0.15 | 1.09 ± 0.078 | 0.886 ± 0.076 | 0.741 ± 0.031 | 0.725 ± 0.12 |
| JURKAT HAEMATOPOIETIC AND LYMPHOID TISSUE | 1.09 | 2.23 | 3.13 | 1.7 | 1.08 ± 0.016 | 1.13 ± 0.013 | 1.07 ± 0.021 | 1.06 ± 0.036 | 0.868 ± 0.019 | 0.295 ± 0.022 | 0.023 | 0.0237 ± 0.00058 | 1.07 ± 0.017 | 1.08 ± 0.025 | 1.07 ± 0.025 | 1.07 ± 0.02 | 1.03 ± 0.098 | 1.05 ± 0.023 | 0.779 ± 0.014 | 0.259 ± 0.043 |
| CADOES1 SOFT TISSUE | 1.99 | 3.08 | 2.94 | 1.95 | 0.973 ± 0.13 | 0.933 ± 0.073 | 0.868 ± 0.011 | 0.905 ± 0.051 | 0.88 ± 0.071 | 0.988 ± 0.13 | 0.798 ± 0.068 | 0.558 ± 0.027 | 0.833 ± 0.033 | 0.909 ± 0.063 | 0.914 ± 0.0056 | 0.98 ± 0.011 | 0.837 ± 0.018 | 0.997 ± 0.024 | 0.931 ± 0.11 | 0.724 ± 0.051 |
